Assay results reported in publication PMC7235819, “Advanced Resistance Studies Identify Two Discrete Mechanisms in Staphylococcus aureus to Overcome Antibacterial Compounds that Target Biotin Protein Ligase” (Antibiotics, 2020).
Values after ≈ are worked out from the molar mass of the structure shown.

Experiments:
[1] = tested on: T1, Staphylococcus aureus NCTC-8325; assay: microbe, parasite or virus in culture; design: antimicrobial susceptibility assay, MIC, growth inhibition of S. aureus parent strain; conditions: NCTC8325
T1 construct: NCTC 8325
Procedure: The ability of S. aureus to develop resistance to BASA was investigated using both spontaneous resistance and serial passage approaches. The S. aureus NCTC 8325 strain was selected due to the availability of a sequenced reference genome for comparative sequence analysis. To measure the rate at which spontaneous resistance develops, 10^9 S. aureus cells were plated onto media containing four times the MIC of BASA. No resistant mutants grew after 24 hours which equates to a calculated resistance frequency of <10^−9 at this inhibitor concentration. BASA resistant S. aureus strains were subsequently generated by the serial passage of seven populations of S. aureus NCTC 8325 in sub-inhibitory concentrations of BASA for 18 days at which time individual colonies were isolated. These were then passaged on non-selective media to verify that the inherited resistance was genetically stable. The sensitivity of the strains to BASA was then established using antimicrobial sensitivity assays (Table 2 and Figure S8A). The isotypic parent strain was highly sensitive to BASA, with an MIC of 0.0625 µg/mL. […] To determine if there was a fitness cost associated with these mutations, in vitro growth curves for the seven strains were analyzed and doubling times calculated (Table 2, Figure S8B). […] To test if the resistance mechanisms identified were specific for BASA, all seven strains were subjected to antibacterial susceptibility assays against a panel of diverse antibiotics that included two known BPL inhibitors, namely biotinol-5′-AMP [32] and BPL223 (compound 4c in [30]). The evolved resistance mechanisms appeared specific to the BPL inhibitors as there was no change in susceptibility to β-lactams amoxicillin and methicillin (Table S1).

[2] = target: T2, biotin protein ligase (SaBPL) (Staphylococcus aureus, UniProt A0A3A5LBF0); assay: native nESI-MS of holo protein (homodimer); format: binding
T2 construct: gene birA; recombinant SaBPL

[3] = target: T3, biotin protein ligase (SaBPL-D200E) (Staphylococcus aureus, UniProt A0A3A5LBF0, D200E); assay: native nESI-MS of holo protein (monomer); format: binding
T3 construct: gene birA; recombinant SaBPL-D200E

[4] = target: Staphylococcus aureus biotin protein ligase (SaBPL), wildtype (S. aureus Mu50); assay: native MS; native nESI-MS (Waters Synapt G1 HDMS), holo protein (biotinyl-5'-AMP bound); 10 uM wildtype SaBPL; SaBPL-D200E at 1.4 to 90 uM; monomer to dimer
[5] = tested on: O=C(O)CCCC[C@@H]1SC[C@@H]2NC(=O)N[C@@H]21; assay: purified protein; conditions: MgATP biotin-binding pocket (biotin-binding loop residues […])
[6] = tested on: O=C(O)CCCC[C@@H]1SC[C@@H]2NC(=O)N[C@@H]21; assay: in vitro protein biotinylation assay, Km; format: biochemical, Staphylococcus aureus; conditions: MgATP biotin-binding pocket (biotin-binding loop residues […])
[7] = target: SaBPL (biotin protein ligase, BirA) wild type (Staphylococcus aureus Mu50, UniProt A0A0H3JRH8 1-323); assay: EMSA; 100 uM biotin + MgATP, 2.5% DMSO (control for BASA); EMSA adapted from cited protocols; buffer, salt, pH and temperature not given; BASA or biotin at 100 uM with 2.5% DMSO in the Fig S7 assays; conditions: protein: recombinant

Molecule: CC1(C)S[C@@H]2[C@H](NC(=O)[C@H](N)c3ccc(O)cc3)C(=O)N2[C@H]1C(=O)O [amoxicillin]
- MIC [1]: 16 µg/mL (≈ 43.8 µM)

Molecule: Nc1ncnc2c1ncn2[C@@H]1O[C@H](COP(=O)(O)OCCCCC[C@@H]2SC[C@@H]3NC(=O)N[C@@H]32)[C@@H](O)[C@H]1O [biotinol-5'-AMP, biotinol-5′-AMP]
- MIC [1]: 1 µg/mL (≈ 1.79 µM)

Molecule: Nc1ncnc2c1ncn2[C@@H]1O[C@H](COP(=O)(O)OC(=O)CCCC[C@@H]2SC[C@@H]3NC(=O)N[C@@H]32)[C@@H](O)[C@H]1O [biotinyl-5′-AMP]
- native nESI-MS of holo protein (homodimer) [2]: SaBPL underwent a well-characterized monomer-to-dimer transition induced by biotinyl-5′-AMP (Figure 3A,B)
- native nESI-MS of holo protein (monomer) [3]: native nESI–MS provided sufficient mass resolution to confirm the presence of bound biotinyl-5′-AMP

Molecule: COc1cccc(OC)c1C(=O)N[C@@H]1C(=O)N2[C@@H]1SC(C)(C)[C@@H]2C(=O)O [methicillin]
- MIC [1]: 2 µg/mL (≈ 5.26 µM)

Molecule: Staphylococcus aureus biotin protein ligase (SaBPL), wildtype (enzyme)
- stoichiometry N [4]: 2

Molecule: biotin protein ligase (SaBPL) (Staphylococcus aureus)
- Km [5]: 1.8 ± 0.3 µM

Molecule: biotin protein ligase (SaBPL-D200E) (Staphylococcus aureus; D200E)
- Km [6]: 3.8 ± 0.4 µM

B1: bioY (dsDNA)
DNA 1: AACTTATTGTAAACTTTTCATTTCTTAAAGTTTACAATGGTGCT
DNA 2: AGCACCATTGTAAACTTTAAGAAATGAAAAGTTTACAATAAGTT
- binding result ([7]; blunt): binds

B2: bioO (dsDNA)
DNA 1: CCTTAAATGTAAACTTTTATAATTAATAAGTTTACATTTAAG
DNA 2: CCTTAAATGTAAACTTATTAATTATAAAAGTTTACATTTAAGG
- binding result ([7]; bottom strand 5' overhang 1 nt as printed (top 42 nt lacks the final G)): binds
